Source: patent US3987189A, “Anti-inflammatory composition and method containing cyclic 2-furfural-acetals” (Henkel & Cie G.m.b.H., priority 1973, dated 1976)
Where two headings read alike, the source gives them in different places.

Legend:
[1] = system: carrageenin induced edema of the rats paw; experiment: Rat's paw test with carrageenin induced edema (amputation method); type: in vivo; conditions: 30 minutes before carrageenin, paws weighed 3 hours after carrageenin, read-out: Rat's paw test with carrageenin induced edema, checking (% inhibition)
Description: As a determination of the suitability of the compounds for preventing the inflammation caused by sunburn, a variation of the rats paw test was used, namely the so-called amputation method was used, which is described by C. H. Winter in the Journal of Pharmacology and Experimental Therapeutics 141, p.369 (1963). In the experiments, Carrageenin is used as the substance causing inflammation.
While only the Carrageenin solution was administered to the control animals, the test animals were given the different test substances by injection or by administration per os in the amount given in Table I below, 30 minutes before its injection with the Carrageenin solution. The test animals were killed 3 hours after the injection of the carrageenin solution causing the inflammation, and the weight of the paws was determined. The inhibiting of the development of the edema of the rats paws after the subplantar injection of the compound checking inflammation was used as an index of the degree of activity and was expressed in % inhibition.
On the basis of general practice, the results of the rats paw test serve as a base for the evaluation of a compound as a sunburn control agent.

[2] = Orienting toxicity test, LD 50; conditions: in vivo
Description: In the following experiments listed below the cyclic 2-furfural-acetals to be used according to the invention were tested for their anti-inflammatoryproperties. First an orienting experiment was carried out to determine their toxicity, in order to be able to determine the test dosages for the further experiments.

[3] = UV-spectrum, absorption maxima; type: physicochemical
Source text: In addition, the absorption maxima of the test substances in the ultraviolet region are given in the following Table I. Since with some of the test substances the absorption maxima lie conveniently in the ultraviolet region producing erythema, which extends from 280 to 320 mμ these, besides their inflammation-preventing action as sunburn control substances, show themselves simultaneously as useful means for protection from the sun.

Row | SMILES | LD50 [2] [mg/kg] | inhibition in vivo at 500 mg/kg ([1]; po, 500 mgm/kg p.o.) [%] | UV-spectrum λ-max [3] [mμ] | UV-spectrum logε at λ-max [3] | also measured
1 | CCCCCCCCCCC1COC(c2ccc([N+](=O)[O-])o2)O1 (centres unmarked) [Compound V, 2-(5'-nitrofuryl-2')-4-n-decyl-1,3-dioxolane] | 1000 | – | – | – | inhibition in vivo at 1000 mg/kg ([1]; po, 1000 mgm/kg p.o.): 18.3%
2 | O=[N+]([O-])c1ccc(C2OCCO2)o1 [Compound A, 2-(5'-Nitrofuryl-2')-1,3-dioxolane] | 810 | 16.2 | 302 | 4.02 | –
3 | CCCCCCCCCCCCCCC1COC(c2ccc([N+](=O)[O-])o2)O1 (centres unmarked) [Compound N, 2-(5'-nitrofuryl-2')-4-tetradecyl-1,3-dioxolane] | 1000 | – | – | – | inhibition in vivo at 1000 mg/kg ([1]; ip, 1000 mgm/kg i.p.): 10.5%
4 | CCCCCCCCCCCCC1COC(c2ccc([N+](=O)[O-])o2)O1 (centres unmarked) [Compound M, 2-(5'-nitrofuryl-2')-4-dodecyl-1,3-dioxolane] | 1000 | – | – | – | inhibition in vivo at 1000 mg/kg ([1]; ip, 1000 mgm/kg i.p.): 18.3%
5 | CCCCC1COC(c2ccc([N+](=O)[O-])o2)O1 (centres unmarked) [Compound S, 2-(5'-nitrofuryl-2')-4-n-butyl-1,3-dioxolane] | 810 | – | – | – | inhibition in vivo at 500 mg/kg ([1]; ip, 500 mgm/kg i.p.): 10.6%
6 | CCCCCCC1COC(c2ccc([N+](=O)[O-])o2)O1 (centres unmarked) [Compound T, 2-(5'-nitrofuryl-2')-4-n-hexyl-1,3-dioxolane] | 1000 | – | – | – | inhibition in vivo at 1000 mg/kg ([1]; po, 1000 mgm/kg p.o.): 12.8%
7 | Cc1ccc(C2OCC(C)(C)C(C(C)C)O2)o1 (centres unmarked) [Compound H, 2-(5'-methylfuryl-2')-4-isopropyl-5,5-dimethyl-1,3-dioxane] | 1000 | – | 300 | 2.08 | inhibition in vivo at 1000 mg/kg ([1]; po, 1000 mgm/kg p.o.): 50%
8 | O=[N+]([O-])c1ccc(C2OC3CCCCC3O2)o1 (centres unmarked) [Compound E, 2-(5'-nitrofuryl-2')-4,5-tetramethylene-1,3-dioxolane] | 1000 | 17.7 | 305 | 4.01 | –
9 | CC1(C)OC(c2ccc([N+](=O)[O-])o2)OC1(C)C [Compound D, 2-(5'-nitrofuryl-2')-4,4,5,5-tetramethyl-1,3-dioxolane] | 810 | 16.5 | 303 | 4.01 | –
10 | CCCCCCCCCCCCCCCCC1COC(c2ccc([N+](=O)[O-])o2)O1 (centres unmarked) [Compound O, 2-(5'-nitrofuryl-2')-4-hexadecyl-1,3-dioxolane] | 2500 | – | – | – | inhibition in vivo at 250 mg/kg ([1]; ip, 250 mgm/kg i.p.): 29.6%
11 | CCCCCCCCC1COC(c2ccc([N+](=O)[O-])o2)O1 (centres unmarked) [Compound U, 2-(5'-nitrofuryl-2')-4-n-octyl-1,3-dioxolane] | 5000 | – | – | – | inhibition in vivo at 250 mg/kg ([1]; ip, 250 mgm/kg i.p.): 17%
12 | Cc1ccc(C2OC(C)C(C)O2)o1 (centres unmarked) [Compound J, 2-(5'-methylfuryl-2')-4,5-dimethyl-1,3-dioxolane] | 1000 | – | 300 | 1.96 | inhibition in vivo at 1000 mg/kg ([1]; po, 1000 mgm/kg p.o.): 48.4%
13 | CC1CC(C)(C)OC(c2ccc([N+](=O)[O-])o2)O1 (centres unmarked) [Compound L, 2-(5'-nitrofuryl-2')-4,4,6-trimethyl-1,3-dioxane] | 1130 | 21.9 | 304 | 4.01 | –
14 | O=[N+]([O-])c1ccc(C2OCCCO2)o1 [Compound W, 2-(5'-nitrofuryl-2')-1,3-dioxane] | 750 | 16.9 | 303 | 3.79 | –
15 | c1coc(C2OC3CCCCC3O2)c1 (centres unmarked) [Compound Y, 2-(Furyl-2')-4,5-tetramethylene-1,3-dioxolane] | 300 | – | – | – | inhibition in vivo at 250 mg/kg ([1]; po, 250 mgm/kg p.o.): 32.3%
16 | CC1OC(c2ccco2)OC1C (centres unmarked) [Compound G, 2-(furyl-2')-4,5-dimethyl-1,3-dioxolane] | 300 | – | 300 | 2.13 | inhibition in vivo at 250 mg/kg ([1]; po, 250 mgm/kg p.o.): 14.5%
17 | CC1OC(c2ccc([N+](=O)[O-])o2)OC(C)C1C (centres unmarked) [Compound K, 2-(5'-Nitrofuryl-2')-4,5,6-trimethyl-1,3-dioxane] | 690 | – | 303 | 3.76 | inhibition in vivo at 250 mg/kg ([1]; po, 250 mgm/kg p.o.): 30.8%
18 | O=[N+]([O-])c1ccc(C2OCCCCO2)o1 [Compound B, 2-(5'-nitrofuryl-2')-1,3-dioxepane] | 1750 | 12.3 | – | – | –
19 | CC1COC(c2ccc([N+](=O)[O-])o2)O1 (centres unmarked) [Compound R, 2-(5'-nitrofuryl-2')-4-methyl-1,3-dioxolane] | 750 | – | 303 | 3.84 | inhibition in vivo at 50 mg/kg ([1]; ip, 50 mgm/kg i.p.): 36.6%
20 | CCCC1(C)COC(c2ccc([N+](=O)[O-])o2)OC1 (centres unmarked) [Compound C, 2-(5'-nitrofuryl-2')-5-methyl-5-propyl-1,3-dioxane] | 300 | – | 302 | 3.98 | inhibition in vivo at 250 mg/kg ([1]; po, 250 mgm/kg p.o.): 16.5%
21 | CC(C)C1OC(c2ccco2)OCC1(C)C (centres unmarked) [Compound F, 2-(furyl-2')-4-isopropyl-5,5-dimethyl-1,3-dioxane] | 300 | – | 300 | 2.35 | inhibition in vivo at 250 mg/kg ([1]; po, 250 mgm/kg p.o.): 48.4%
22 | CC1CCOC(c2ccc([N+](=O)[O-])o2)O1 (centres unmarked) [Compound X, 2-(5'-nitrofuryl-2')-4-methyl-1,3-dioxane] | 750 | 12.1 | 303 | 3.87 | –
23 | CC(C)C1OC(c2ccc([N+](=O)[O-])o2)OCC1(C)C (centres unmarked) [Compound Q, 2-(5'-nitrofuryl-2')-4-isopropyl-5,5-dimethyl-1,3-dioxane] | 1750 | – | 301 | 4.07 | inhibition in vivo at 750 mg/kg ([1]; po, 750 mgm/kg p.o.): 34.1%
